Like-named read-outs stand apart in the source and are kept apart here.

For data set [1], the system named is ATOH1-independent tuft cells. The note with it: antibiotic-treated AtohKO animals; small intestine. The source says: (§1) Mid-dose antibiotics and low-dose antibiotics were 0.75× and 0.25× of the original 1× concentration, respectively.
A further data set has as its system tuft cells. The protocol:
(§2) Immunofluorescence staining and imaging: Paraffin-embedded ileal tissues were section (5 μm) prior to deparaffinization, rehydration, and antigen retrieval using a citrate buffer (pH 6.0) for 20 minutes in a pressure cooker at 105° C., followed by a 20-minute cool down at room temperature (RT). Endogenous background signal was quenched by incubating tissue slides in 3% hydrogen peroxide for 10 minutes at RT. Tissue sections were blocked in staining buffer (3% bovine serum albumin/10% normal donkey serum) for 1 hour at RT prior to incubation with primary antibody overnight at RT. Antibodies used for immunofluorescence included those against LYZ1 (DAKO, 1:100, rabbit), MUC2 (Santa Cruz, 1:100, rabbit), MPO (DAKO, 1:100, rabbit), DCLK1 (Santa Cruz, 1:100, goat), FOXP3 (eBioscience, 1:50, rat), and GATA3 (Abcam, 1:50, rabbit). Sections were then incubated with AlexaFluor (AF)-555- or AF-647-conjugated secondary antibodies (Life Technologies, 1:500) for 1 hour at RT and Hoechst (1:10,000, Life Technologies) for 10 min at RT. For human tuft cell labeling, AF-488-conjugated pEGFR (Abcam, 1:100) and unconjugated COX2 (CST, 1:100, rabbit) were used. Slides were incubated with anti-rabbit AF-647-conjugated secondary antibody and stained with Hoechst. Imaging was performed using a Zeiss Axio Imager M2 microscope with Axiovision digital imaging system (Zeiss, Jena GmBH, Germany).

Data set [2] deals with TNF^ΔARE/+ model of Crohn's-like ileitis. The note with it: TNFΔARE/+ ileum. The procedure:
Mouse Experiments: All animal protocols were approved by the Vanderbilt University Animal Care and Use Committee and in accordance with NIH guidelines. Lrig1^CreERT2 and Atoh1^flox/flox strains, each in a C57BL/6 background, were purchased from Jackson Laboratory to generate Lrig1^CreERT2/+; Atoh1^fl/fl (AtohKO) animals Cre recombinase activity was induced in two- or three-month-old Lrig1^CreERT2/+; Atoh1^fl/fl and Lrig1^+/+; Atoh1^fl/fl males via intraperitoneal administration of 2 mg of tamoxifen (Sigma-Aldrich) for four consecutive days. Mice were sacrificed and tissues were harvested twenty-one days after the first injection. TNF^ΔARE/+ and wildtype littermates were sacrificed at four months of age after disease onset, followed by tissue collection Animal weights were recorded at regular intervals.
as §1, §2
Image quantification: To quantify human tuft cells, the number of crypt and villus structures were counted per field of view (FOV) for each subject (approximately 15-20 FOVs per sample). Tuft cell number, as identified by pEGFR and COX co-labeling, was manually counted per FOV in a blinded fashion. Quantification of tuft cell number per epithelial structure (crypt and villus) was generated for each subject and then stratified by disease state (“normal” or “Crohn's disease”) based on the pathology report. Results were analyzed by t-test using Prism GraphPad. For MUC2 quantification, manual demarcation of the epithelial villi was performed in each FOV and a nuclear mask was generated based on Hoechst staining.

The next data set concerns cytokine levels. In words: Multiplex Luminex cytokine levels in short-term succinate-treated TNFΔARE/+ animals.
In the next data set the test system is AtohKO enteroids. In words: IL-13 administration in enteroids. The data set is classed as cell-based, mouse. Particulars: level similar to IL-13 in control enteroids. The protocol:
Enteroid Experiment: Ileal tissue was dissected and incubated in chelation buffer (3 mM EDTA/EGTA, 0.5 mM DTT, 1% P/S) at 4° C. for 45 minutes. The tissue was shaken in PBS and filtered through a 100 μm filter to isolate individual ileal crypts. The crypt suspension was centrifuged at 2.8×1000 RPM for 1½ minutes at 4° C. following which 10 μl of crypt pellet was resuspended in 300 μl of reduced growth factor Matrigel and embedded in a 24-well dish. Enteroids were cultured initially in IntestiCult Organoid Growth Medium (StemCell Technologies) supplemented with Primocin antimicrobial reagent (InvivoGen, 1:1000) for 4 days before being changed to Primocin-supplemented differentiation media. For ex vivo Cre-activation, Lrig1^CreERT2/+ Atoh1^fl/fl enteroids were treated overnight at 37° C. with either 1 μM 4-hydroxytamoxifen (Sigma-Aldrich) or vehicle (ethanol) in differentiation media. Enteroids were passaged the following day into 8-well chamber slides and, after 5 days, were fixed on ice using 4% PFA for immunofluorescence staining.
Enteroid Immunofluorescence Staining: Fixed enteroids were permeabilized with Triton X-100 for 30 min and blocked with 1% normal donkey serum (PBS) for 30 min at RT. Enteroids were stained with primary antibodies against LYZ1 (DAKO, 1:100, rabbit), MUC2 (Santa Cruz, 1:100, rabbit), and DCLK1 (Santa Cruz, 1:100, goat). […]

Setting [3] is: succinate-treated intestinal tissues.
Where [4] appears, read: short-term succinate vs untreated controls.

For `O=C(O)CCC(=O)O` [succinate, succinic acid], the tuft cell expansion result in data set [1] is listed as “restored tuft cell expansion to microbiome-replete levels”. Also, in the data set with tuft cells (exogenous succinate administration, small intestine), the tuft cell expansion entry was “induces tuft cell expansion”. Moreover, the “tuft cell expansion in the colon” value in the data set with tuft cells (succinate administration, colon) is on record as “did not induce tuft cell expansion”. Also, in the data set on tuft cells (setting [3]), the “GATA3+ cells” value was “increased” and the “major basic protein-positive eosinophils” value is recorded as “increased”. Moreover, in the data set with TCA cycle genes (exogenous succinate treatment), the “expression of Idh3b, Idh3a, Sdha, Sdhd in the tuft cell lineage” value was “induced”. In the data set with TCA cycle genes (succinate treatment), the “expression of genes such as Sdhc in the secretory lineage” value is “significantly reduced”. Also, the “relative expression of Mdh2 and Sdhc in enterocytes” value in the data set with TCA cycle genes (untreated and succinate-treated enterocytes) was “constitutively high”. Also, in data set [2] (long-term (1 month) succinate treatment), the “FOXP3+ T-regulatory cells” value is on record as “significantly reduced”. Besides, in data set [2] (succinate-treated), the “DCLK1+ tuft cells” value was “increased” and the “stromal LYZ1 expression” value is “less stromal LYZ1 expression”. In data set [2] (succinate-treated vs control), the “depth of inflammation (0-4), pathological scoring” value is “decreased mucosal destruction” and the “extent of tissue injury (0-4), pathological scoring” value was “decreased mucosal destruction”. For the same compound, where the note is “TNFΔARE/+ animals, succinate in drinking water”, the weight gain entry was “failed to gain as much weight as untreated controls”. The weight gain result (wildtype animals treated with succinate) is recorded as “minimal weight gain”. Also, in the data set on cytokine levels (short-term (<1 week) succinate), the IL-17A result was “significant increase”, the IL-17F result is on record as “significant increase”, the IL-22 levels entry is “increased levels” and the IL-23 levels result is reported as “significantly reduced”. Moreover, the IL-27 expression entry in the data set with cytokine levels (short-term (<1 week) succinate) is listed as “induced”. In the data set with cytokine levels (short-term succinate), the IL-5 result is recorded as “increased”, the IL-9 result was “increased” and the IL-10 entry was “increased”. Moreover, in the data set on cytokine levels (setting [4]), the IL-4 levels entry is “significantly increased”, the IL-13 levels result was “significantly increased” and the IL-25 levels entry is “significantly increased”. In addition, the TNF-α levels entry in the data set on cytokine levels (succinate treatment) is “did not result in decreased TNF-α levels”.

For “IL-13: type 2 cytokine interleukin-13 administered to enteroids”, in the data set on AtohKO enteroids, the “tuft cell specification and expansion” value is “induced tuft cell specification and expansion”.

Values taken from US20220047538A1, “TUFT CELL SPECIFICATION IN INFLAMMATORY ILEITIS” (VANDERBILT UNIVERSITY, priority 2019, published 2022).
